Test results published in publication PMC7822874, “Chemoprotective antimalarials identified through quantitative high-throughput screening of Plasmodium blood and liver stage parasites” (Scientific Reports, 2021).

How the values were obtained:
[1] = tested on: P. falciparum Dd2 Cytb G131S; test: SYBR Green ABS proliferation assay, NCGC00374598 selected clone C11; type: cell-based, Plasmodium falciparum; conditions: Plasmodium falciparum, DD2, cytochrome b mutant line, second value triple, c6; […]; read-out: log AC50, mean (converted)
In short: (§1)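 Asexual blood-stage proliferation of cytochrome b-mutant Dd2 clones after 72 h compound exposure at 37 °C in low-oxygen gas, quantified as control-normalized SYBR Green-I fluorescence; differences tested by two-sided t-test.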

[2] = tested on: P. falciparum Dd2 Cytb F123L; test: SYBR Green ABS proliferation assay, NCGC00473217 selected clone G08; type: cell-based, Plasmodium falciparum; conditions: Plasmodium falciparum, DD2, cytochrome b mutant line, fifth value triple, c15; […]; read-out: log AC50, mean (converted)
Experimental: As resistance selection studies implicated the parasite cytochrome bc1 complex in mediating reduced parasite susceptibility to both NCGC00473217 and NCGC00374598, we leveraged these drug-selected parasites to test for altered drug response to a panel of antimalarial compounds.
The P. falciparum parasite Dd2 line was cultured in vitro using standard conditions. […] Tissue culture flasks and assay plates were incubated at 37 °C under a gas mixture of 5% CO2, 5% O2 and 90% N2. […] Significant differences were assessed using two-sided Student’s t-tests. All HTS assays were stopped and read at 72 h. Percent response values represent relative growth as judged by SYBR Green-I fluorescence intensity values normalized to controls.
Fresh uninfected RBCs (0.5% hematocrit) were added on day 7 and media was changed every other day. […] Resistant parasites were maintained under drug media at a volume of 50 mL until a high parasitemia (> 5%) was achieved. Aliquots of the bulk resistant cultures were frozen in cryovials before cloning by limiting dilution in 96-well plates (seeded at 0.25 or 0.5 parasites/well)[70]. After 3 weeks of cloning, we screened for positive wells by flow cytometry with SYBR Green-stained cells. […] Parasites were harvested by saponin lysis at the trophozoite stage and genomic DNA was extracted using the QIAamp DNA Blood Midi Kit (Qiagen, Germantown, MD)[71].

[3] = tested on: P. falciparum Dd2 Cytb V259L; test: SYBR Green ABS proliferation assay, NCGC00473217 selected clone F06; type: cell-based, Plasmodium falciparum; conditions: Plasmodium falciparum, DD2, cytochrome b mutant line, third value triple, c9; […]; read-out: log AC50, mean (converted)
In short: as §1

[4] = tested on: P. falciparum Dd2 Cytb A122D; test: SYBR Green ABS proliferation assay, NCGC00473217 selected clone F12; type: cell-based, Plasmodium falciparum; conditions: Plasmodium falciparum, DD2, cytochrome b mutant line, fourth value triple, c12; […]; read-out: log AC50, mean (converted)
In short: as §1

[5] = tested on: Plasmodium falciparum Dd2 asexual blood stage parasites; test: microbe, parasite or virus in culture; parameters: species or system Plasmodium falciparum Dd2 in human erythrocytes; single determination (one 11-point concentration-response curve); conditions: Plasmodium falciparum, DD2, Erythrocyte, 72 h; read-out: AC50

SMILES | AC50 [1] | AC50 [2] | AC50 [3] | AC50 [4] | AC50 [5]
COc1ccc(-c2nc(C3CC3)nc3c2CCN(Cc2cccnc2)CC3)cc1 [NCGC00476959-01] | 13.3 µM | 13.8 µM | 18.1 µM | 19.5 µM | 13.3 µM
CN(C)c1nc2c(c(=O)[nH]1)CCN(Cc1ccccc1Br)CC2 [NCGC00440591-01] | 6.93 µM | 1.44 µM | 13.3 µM | 5.73 µM | 9.44 µM
O=c1[nH]c(N2CCOCC2)nc2c1CCN(Cc1ccccc1C(F)(F)F)CC2 [NCGC00440637-01] | 3.61 µM | 0.618 µM | 8.09 µM | 2.66 µM | 4.73 µM
CCc1nc2c(c(-c3ccc(O)cc3)n1)CCN(Cc1ccc(OC)cc1)CC2 [NCGC00480297-01] | 5.11 µM | 5.31 µM | 5.11 µM | 6.18 µM | 6.68 µM
CC(C)c1nc2c(c(-c3ccc(O)cc3)n1)CCN(Cc1ccc(OC(F)(F)F)cc1)CC2 [NCGC00480325-01] | 5.31 µM | 6.68 µM | 8.73 µM | 6.43 µM | 2.99 µM
CC(C)c1nc2c(c(-c3ccc(O)cc3)n1)CCN(CC1CCCCC1)CC2 [NCGC00480317-01] | 5.73 µM | 5.11 µM | 5.73 µM | 8.41 µM | 4.73 µM
CN(C)c1nc2c(c(=O)[nH]1)CCN(Cc1ccc(F)cc1Cl)CC2 [NCGC00440505-01] | 6.18 µM | 1.74 µM | 10.2 µM | 5.51 µM | 10.6 µM
Cc1ccc(CN2CCc3nc(C4CC4)nc(-c4ccc(O)cc4)c3CC2)cc1 [NCGC00480348-01] | 7.21 µM | 6.68 µM | 6.93 µM | 7.78 µM | 4.73 µM
COc1ccc(-c2nc(C3CC3)nc3c2CCN(Cc2ccccc2)CC3)cc1 [NCGC00374622-01] | 6.43 µM | 6.68 µM | 6.93 µM | 6.93 µM | 
CCCN1C(CC(C)C)=N[S+](=O)([O-])c2cc(NC(=O)c3ccc(SC)cc3)ccc21 [NCGC00531764-01] | 0.0796 µM | 10 µM | 2.12 µM | 8.93 µM | 
O=c1[nH]c(N2CCOCC2)nc2c1CCN(Cc1ccc(Cl)c(F)c1)CC2 [NCGC00440655-01] | 11.4 µM | 4.55 µM | 13.8 µM | 12.8 µM | 
CCCN1C(CC(C)C)=N[S+](=O)([O-])c2cc(NC(=O)Nc3cccs3)ccc21 [NCGC00537523-01] | 2.67 µM | 9.66 µM | 5.22 µM | 9.29 µM | 
CCCN1C(CC(C)C)=N[S+](=O)([O-])c2cc(NCc3ccc(F)cc3)ccc21 [NCGC00531784-01] | 4.15 µM | 12.6 µM | 11.9 µM | 14.2 µM | 
CCCN1C(CC(C)C)=N[S+](=O)([O-])c2cc(NC(=O)c3ccccc3OC)ccc21 [NCGC00531762-01] | 1 µM | 2.52 µM | 2 µM | 1.12 µM | 
CCCN1C(CC(C)C)=N[S+](=O)([O-])c2cc(NC(=O)c3c(Cl)cccc3Cl)ccc21 [NCGC00531779-01] | 1.85 µM | 15.3 µM | 11.9 µM | 15.9 µM | 
